Assay in all cases: NCI anticancer screen, dose series, 48 h
The subject of assay [1] is HOP-62 NSCLC.
Assay [2] deals with HT29 colon.
Assay [3] has as its system MALME-3M melanoma.
Assay [4] deals with MCF7 breast.
The subject of assay [5] is MOLT-4 leukemia.
Assay [6] has as its system OVCAR-3 ovarian.
For assay [7], the system named is RPMI-8226 leukemia.
The subject of assay [8] is SF-268 CNS.
Assay [9] concerns SN12C renal.
The subject of assay [10] is SR leukemia.

“And” between values parts separate entries of the source, which are not always exact repeats. Equal entries are not always repeated.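 All cell lines were grown in 96-well plates and treated with compound for 48 hours. Abbreviation: GI50, concentration required for 50% inhibition of growth. Definition used: TGI = concentration required for complete inhibition of growth.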

Regarding `CCOC(=O)c1ccc(N[C@@H]2c3cc4c(cc3C(c3cc(OC)c(O)c(OC)c3)[C@H]3C(=O)OCC32)OCO4)cc1` (some centres not stated), the GI50 in [1] was 0.212 µM and 0.129 µM; in [2], 0.949 µM; in [3], 0.343 µM; in [5] it was 0.0271 µM; in assay [8] it was 0.394 µM; in [9], 0.249 µM. In addition, in assay [10], the GI50 is 0.0303 µM. In addition, the TGI is 0.709 µM and 0.79 µM in assay [1]; 6.92 µM in assay [2]; 2.95 µM in assay [3]; 20.3 µM in [4]; 0.219 µM and 0.158 µM in assay [5]; 6.71 µM in [6]. In addition, the TGI is 7.08 µM in assay [7]; 15.7 µM in assay [8]; 0.955 µM and 3.91 µM in assay [9]; 0.32 µM and 0.742 µM in assay [10].
With `Nc1ncnc2c1ncn2C1OC(F)(COS(N)(=O)=O)C(O)C1O` (configuration not stated), the GI50 in [1], in assay [2], in [3], in assay [4], in assay [5] and in [6] was above 100 µM each time. The GI50 in assay [7], in [8], in [9] and in assay [10] was above 100 µM throughout. Also, the TGI in assay [1], in assay [2], in [3], in assay [4], in [5] and in [6] was above 100 µM in each case. The TGI in assay [7], in [8], in [9] and in [10] was above 100 µM in each case.

Values taken from PubChem BioAssay (NCI).
